Reference: patent US20260062422A1 (Halda Therapeutics OpCo, Inc., priority 2022, published 2026)

Experiments:
[1] = tested on: T-Rex 293 cell line SC3 cells having increased expression of androgen receptor protein due to exposure to doxycycline; test: Cellular growth inhibition, T-Rex 293 SC3 cells with doxycycline (androgen receptor induced), CellTiter-Glo; assay type: cell-based; conditions: T-Rex 293 SC3 cells with 10 ng/mL doxycycline (increased androgen receptor expression)
Procedure, shortened: (§1)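 GI50 came from a four-parameter fit of CellTiter-Glo 2.0 luminescence after 72 h compound exposure (0.5% DMSO, 37 °C), dosing 24 h post-seeding. SC3 clone cells (2500/well), transfected with wild-type androgen receptor, grew in charcoal-stripped serum medium lacking phenol red, induced with 10 ng/mL doxycycline or left uninduced.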

[2] = tested on: T-Rex 293 cell line SC3 cells lacking increased expression of androgen receptor protein; test: Cellular growth inhibition, T-Rex 293 SC3 cells without doxycycline, CellTiter-Glo; assay type: cell-based; conditions: T-Rex 293 SC3 cells not exposed to doxycycline, CellTiter-Glo 2.0
Procedure, shortened: as §1

[3] = tested on: VCaP cells; test: Cellular growth inhibition assay for VCaP cells, CellTiter-Glo; assay type: cell-based, human; conditions: 72 hours treatment, CellTiter-Glo 2.0
Procedure, shortened: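 GI50 values come from four-parameter curve fits of luminescence data normalized to a zero baseline. Compound, in medium with 0.5% DMSO, was added one day after plating and left for 72 h before CellTiter-Glo 2.0 addition.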

[4] = tested on: T47D cells; test: Cellular growth inhibition assay for T47D cells, CellTiter-Glo; assay type: cell-based, human; conditions: 72 hours treatment, CellTiter-Glo 2.0 cell viability
Procedure, shortened: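 Cells are plated at 3000/well and allowed 24 h before treatment. Test compound in medium containing 0.5% DMSO is then added, with DMSO-only wells as negative control, and plates are incubated 72 h at 37 °C. ATP luminescence (CellTiter-Glo 2.0) is then fitted to four parameters to derive GI50.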

Row | SMILES | GI50 ([1]; 72 h) | GI50 ([2]; 72 h) | GI50 ([3]; Homo sapiens, VCaP, 72 h) | GI50 ([4]; Homo sapiens, T47D, 72 h) | GI50 ([1]; 72 hours) | GI50 ([2]; 72 hours) | GI50 [3] | GI50 [4]
1 | Cc1sc2c(c1C)C(c1ccc(-c3cc(OC4CCN(c5ncc(C(=O)N[C@H]6C(C)(C)[C@H](Oc7ccc(C#N)c(Cl)c7)C6(C)C)cn5)CC4)ns3)cc1)=N[C@@H](Cc1ncco1)c1nnc(C)n1-2 [Compound I-389] | < 500 nM | > 3000 nM | 500 to 1500 nM | < 500 nM | – | – | – | –
2 | Cc1sc2c(c1C)C(c1ccc(Cl)cc1)=N[C@H](CC(=O)NCCCCOC1CCN(c3ncc(C(=O)N[C@H]4C(C)(C)[C@H](Oc5ccc(C#N)c(Cl)c5)C4(C)C)cn3)CC1)c1nnc(C)n1-2 [Compound I-21] | < 500 nM | > 3000 nM | < 500 nM | 500 to 1500 nM | – | – | – | –
3 | Cc1sc2c(c1C)C(c1ccc(CN3CCO[C@@H](CNc4ncc(C(=O)N[C@H]5C(C)(C)[C@H](Oc6ccc(C#N)c(Cl)c6)C5(C)C)cn4)C3)cc1)=N[C@@H](Cc1ncco1)c1nnc(C)n1-2 [Compound I-334] | < 500 nM | < 500 nM | < 500 nM | < 500 nM | – | – | – | –
4 | Cc1sc2c(c1C)C(c1ccc(CN(C)C(=O)NCc3ncc(C(=O)N[C@H]4C(C)(C)[C@H](Oc5ccc(C#N)c(Cl)c5)C4(C)C)cn3)cc1)=N[C@@H](Cc1ncco1)c1nnc(C)n1-2 [Compound I-361] | > 3000 nM | > 3000 nM | 1500 to 3000 nM | 1500 to 3000 nM | – | – | – | –
5 | Cc1sc2c(c1C)C(c1ccc(-c3cc(C4CCN(c5ncc(C(=O)N[C@H]6C(C)(C)[C@H](Oc7ccc(C#N)c(Cl)c7)C6(C)C)cn5)CC4)on3)cc1)=N[C@@H](Cc1ncco1)c1nnc(C)n1-2 [Compound I-453] | < 500 nM | > 3000 nM | < 500 nM | < 500 nM | – | – | – | –
6 | Cc1sc2c(c1C)C(c1ccc(C3(C4CC5(CCN(c6ncc(C(=O)N[C@H]7C(C)(C)[C@H](Oc8ccc(C#N)c(Cl)c8)C7(C)C)cn6)CC5)C4)CC3)cc1)=N[C@@H](Cc1ncco1)c1nnc(C)n1-2 [Compound I-525] | < 500 nM | > 3000 nM | < 500 nM | < 500 nM | – | – | – | –
7 | Cc1sc2c(c1C)C(c1ccc(CCCOC3CCN(c4ncc(C(=O)N[C@H]5C(C)(C)[C@H](Oc6ccc(C#N)c(Cl)c6)C5(C)C)cn4)CC3)cc1)=C[C@H](Cc1ccncn1)c1nnc(C)n1-2 [Compound I-376] | – | – | – | – | < 500 nM | < 500 nM | < 500 nM | < 500 nM
8 | Cc1sc2c(c1C)C(c1ccc(C(=O)N3CCN(C(=O)c4ncc(C(=O)N[C@H]5C(C)(C)[C@H](Oc6ccc(C#N)c(Cl)c6)C5(C)C)cn4)CC3)cc1)=N[C@H](Cc1ncco1)c1nnc(C)n1-2 [Compound I-286] | 500 to 1500 nM | > 3000 nM | > 3000 nM | > 3000 nM | – | – | – | –
9 | Cc1sc2c(c1C)C(c1ccc(OC[C@H]3CC[C@]4(CCCN(c5ncc(C(=O)N[C@H]6C(C)(C)[C@H](Oc7ccc(C#N)c(Cl)c7)C6(C)C)cn5)C4)C3)cc1)=N[C@@H](Cc1ncco1)c1nnc(C)n1-2 [Compound I-204] | < 500 nM | > 3000 nM | 500 to 1500 nM | < 500 nM | – | – | – | –
10 | Cc1sc2c(c1C)C(c1ccc(C(=O)N3CCN(Cc4ncc(C(=O)N[C@H]5C(C)(C)[C@H](Oc6ccc(C#N)c(Cl)c6)C5(C)C)cn4)CC3)cc1)=N[C@H](Cc1ncco1)c1nnc(C)n1-2 [Compound I-328] | 1500 to 3000 nM | > 3000 nM | > 3000 nM | 1500 to 3000 nM | – | – | – | –
11 | Cc1sc2c(c1C)C(c1ccc(CN3CC4(CCCN(c5ncc(C(=O)N[C@H]6C(C)(C)[C@H](Oc7ccc(C#N)c(Cl)c7)C6(C)C)cn5)C4)C3)cc1)=N[C@H](Cc1ncco1)c1nnc(C)n1-2 [Compound I-149] | < 500 nM | > 3000 nM | 500 to 1500 nM | > 3000 nM | – | – | – | –
12 | COCC[C@@H]1N=C(c2ccc(N3CC(CC4CCN(c5cnc(C(=O)N[C@H]6C(C)(C)[C@H](Oc7ccc(C#N)c(Cl)c7)C6(C)C)cn5)CC4)C3)cc2)c2c(sc(C)c2C)-n2c(C)nnc21 [Compound I-609] | < 500 nM | < 500 nM | 500 to 1500 nM | < 500 nM | – | – | – | –
13 | Cc1sc2c(c1C)C(c1ccc(CN(C)C(=O)CN(C)c3ncc(C(=O)N[C@H]4C(C)(C)[C@H](Oc5ccc(C#N)c(Cl)c5)C4(C)C)cn3)cc1)=N[C@@H](Cc1ncco1)c1nnc(C)n1-2 [Compound I-335] | < 500 nM | > 3000 nM | 500 to 1500 nM | 500 to 1500 nM | – | – | – | –
14 | Cc1sc2c(c1C)C(c1ccc(CNC(=O)NCc3ncc(C(=O)N[C@H]4C(C)(C)[C@H](Oc5ccc(C#N)c(Cl)c5)C4(C)C)cn3)cc1)=N[C@@H](Cc1ncco1)c1nnc(C)n1-2 [Compound I-326] | 500 to 1500 nM | > 3000 nM | 500 to 1500 nM | 1500 to 3000 nM | – | – | – | –
15 | Cc1sc2c(c1C)C(c1ccc(N(C)CC(=O)N3CCC(c4ncc(C(=O)N[C@H]5C(C)(C)[C@H](Oc6ccc(C#N)c(Cl)c6)C5(C)C)cn4)CC3)cc1)=N[C@@H](Cc1ncco1)c1nnc(C)n1-2 [Compound I-355] | > 3000 nM | > 3000 nM | > 3000 nM | > 3000 nM | – | – | – | –
16 | Cc1sc2c(c1C)C(c1ccc([C@@H]3CCCN(c4ncc(C(=O)N[C@H]5C(C)(C)[C@H](Oc6ccc(C#N)c(Cl)c6)C5(C)C)cn4)C3)cc1)=N[C@@H](Cc1ncco1)c1nnc(C)n1-2 [Compound I-295] | < 500 nM | < 500 nM | < 500 nM | < 500 nM | – | – | – | –
17 | CC[C@@H]1N=C(c2ccc(CC3CCC4(C3)CN(c3ncc(C(=O)N[C@H]5C(C)(C)[C@H](Oc6ccc(C#N)c(Cl)c6)C5(C)C)cn3)CCO4)cc2)c2c(sc(C)c2C)-n2c(C)nnc21 (stereo partly drawn) [Compound I-615] | – | – | – | – | < 500 nM | < 500 nM | < 500 nM | > 3000 nM
18 | Cc1sc2c(c1C)C(c1ccc(N3CCC(CC4CCN(c5ncc(C(=O)N[C@H]6C(C)(C)[C@H](Oc7ccc(C#N)c(Cl)c7)C6(C)C)cn5)CC4)CC3)cc1)=N[C@@H](Cc1ncco1)c1nnc(C)n1-2 [Compound I-210] | 500 to 1500 nM | > 3000 nM | > 3000 nM | > 3000 nM | – | – | – | –
19 | Cc1sc2c(c1C)C(c1ccc(C3CC(C4CCN(c5cnc(C(=O)N[C@H]6C(C)(C)[C@H](Oc7ccc(C#N)c(Cl)c7)C6(C)C)cn5)CC4)C3)cc1)=NC(C)c1nnc(C)n1-2 (stereo partly drawn) [Compound I-472] | – | – | – | – | > 3000 nM | > 3000 nM | > 3000 nM | < 500 nM
20 | Cc1sc2c(c1C)C(c1ccc(O[C@@H]3CC[C@@]4(CCCN(c5ncc(C(=O)N[C@H]6C(C)(C)[C@H](Oc7ccc(C#N)c(Cl)c7)C6(C)C)cn5)C4)C3)cc1)=N[C@@H](Cc1ncco1)c1nnc(C)n1-2 [Compound I-201] | < 500 nM | > 3000 nM | < 500 nM | < 500 nM | – | – | – | –
21 | COCC[C@@H]1N=C(c2ccc(OC3CC4(CCCN(c5ncc(C(=O)N[C@H]6C(C)(C)[C@@H](Oc7ccc(C#N)c(Cl)c7)C6(C)C)cn5)C4)C3)cc2)c2c(sc(C)c2C)-n2c(C)nnc21 [Compound I-570] | – | – | – | – | < 500 nM | > 3000 nM | < 500 nM | > 3000 nM
22 | Cc1sc2c(c1C)C(c1ccc(C#CCN3CCN(c4ncc(C(=O)N[C@H]5C(C)(C)[C@H](Oc6ccc(C#N)c(Cl)c6)C5(C)C)cn4)CC3)cc1)=N[C@@H](Cc1ncco1)c1nnc(C)n1-2 [Compound I-56] | < 500 nM | < 500 nM | < 500 nM | < 500 nM | – | – | – | –
23 | Cc1sc2c(c1C)C(c1ccc(CC3CC4(CCN(c5cnc(C(=O)N[C@H]6C(C)(C)[C@H](Oc7ccc(C#N)c(Cl)c7)C6(C)C)cn5)CC4)C3)cc1)=N[C@@H](C)c1nnc(C)n1-2 [Compound I-448] | < 500 nM | > 3000 nM | > 3000 nM | < 500 nM | – | – | – | –
24 | Cc1sc2c(c1C)C(c1ccc(CC3CC4(CCCN(c5ncc(C(=O)N[C@H]6C(C)(C)[C@H](Oc7ccc(C#N)c(Cl)c7)C6(C)C)cn5)C4)C3)cc1)=N[C@@H](C)c1nnc(C)n1-2 [Compound I-380] | < 500 nM | > 3000 nM | < 500 nM | > 3000 nM | – | – | – | –
25 | Cc1sc2c(c1C)C(c1ccc(C(=O)N3CC[C@@]4(CCCN(c5ncc(C(=O)N[C@H]6C(C)(C)[C@H](Oc7ccc(C#N)c(Cl)c7)C6(C)C)cn5)C4)C3)cc1)=N[C@H](Cc1ncco1)c1nnc(C)n1-2 [Compound I-257] | < 500 nM | > 3000 nM | > 3000 nM | 1500 to 3000 nM | – | – | – | –
26 | Cc1sc2c(c1C)C(c1ccc(O[C@H]3CCOC34CN(c3ncc(C(=O)N[C@H]5C(C)(C)[C@H](Oc6ccc(C#N)c(Cl)c6)C5(C)C)cn3)C4)cc1)=N[C@@H](Cc1ncco1)c1nnc(C)n1-2 [Compound I-183] | < 500 nM | < 500 nM | < 500 nM | 500 to 1500 nM | – | – | – | –
27 | Cc1sc2c(c1C)C(c1ccc(OC3CC4(CCN(c5ncc(C(=O)N[C@H]6C(C)(C)[C@H](Oc7ccc(C#N)c(Cl)c7)C6(C)C)cn5)CC4)C3)cc1)=N[C@](C)(C(C)c1ncco1)c1nnc(C)n1-2 (stereo partly drawn) [Compound I-273] | < 500 nM | > 3000 nM | > 3000 nM | > 3000 nM | – | – | – | –
